From PMC2749132 (The Journal of Biological Chemistry, 2009) come the findings set out here.

The test addresses T1, MBP-MtHPS (MtHPS, HPS, halimadienyl-diphosphate synthase, Rv3377c) (Mycobacterium tuberculosis, UniProt O50406).
T1 sequence (O50406 1-501): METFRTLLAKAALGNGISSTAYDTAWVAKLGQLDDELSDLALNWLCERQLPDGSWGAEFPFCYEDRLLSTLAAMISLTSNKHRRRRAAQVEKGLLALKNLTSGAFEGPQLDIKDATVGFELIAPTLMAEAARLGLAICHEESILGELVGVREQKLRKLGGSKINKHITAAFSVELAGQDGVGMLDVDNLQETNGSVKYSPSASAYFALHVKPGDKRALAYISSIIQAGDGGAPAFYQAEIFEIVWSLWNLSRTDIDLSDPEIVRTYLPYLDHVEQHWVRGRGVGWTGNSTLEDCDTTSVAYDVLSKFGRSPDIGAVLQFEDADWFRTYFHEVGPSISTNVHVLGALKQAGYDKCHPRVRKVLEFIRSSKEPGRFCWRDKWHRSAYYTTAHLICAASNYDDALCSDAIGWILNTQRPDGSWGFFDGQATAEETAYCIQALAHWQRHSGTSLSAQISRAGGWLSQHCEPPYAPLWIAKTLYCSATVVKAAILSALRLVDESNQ
The test can be described thus: GC-FID conversion of GGPP to HPP, substrate inhibition equation. Format: biochemical. The note with it: 0.1 mM Mg2+, pH 7.75, 25 nM enzyme, 1 min.

`CC(C)=CCC/C(C)=C/CC/C(C)=C/CC/C(C)=C/COP(=O)(O)OP(=O)(O)O` [1a, GGPP] gave a Ki of 18 ± 6 µM.
